These are literature values, as cited in patent publication KR20140130881A, “보리코나졸을 함유하는 안정한 주사용 조성물” (동아에스티 주식회사, priority 2013, dated 2014).

≈ marks a conversion by molar mass, not a printed value.

In the case of `C[C@@H](c1ncncc1F)[C@](O)(Cn1cncn1)c1ccc(F)cc1F` [보리코나졸, (2R,3S)-2-(2,4-다이플루오로페닐)-3-(5-플루오로피리미딘-4-일)-1-(1H-1,2,4-트리아졸-1-일)부탄-2-올], the aqueous solubility (as a rule, the dissolved amount per volume that the medium holds) (pH 3, acidic solution) is 200 µg/mL (≈ 573 µM). In addition, the solubility in water (water) is 700 µg/mL (≈ 2000 µM).
